Measured values reported in patent EP4800012A1, “COMPOUND ACTING AS PARP7 INHIBITOR” (Dovetree Medicines Unus, Inc., priority 2023, dated 2025).
Read-outs that look alike come from different tables or passages of the source.

Key:
PARP7 [1] = molecular target: T1, PARP7 (Homo sapiens, UniProt Q7Z3E1); assay: Inhibition of the compound on PARP7 protein activity (ADP-ribosylation, chemiluminescence); format: biochemical
T1 construct: purchased BPS 80527
T1 sequence (Q7Z3E1 1-657): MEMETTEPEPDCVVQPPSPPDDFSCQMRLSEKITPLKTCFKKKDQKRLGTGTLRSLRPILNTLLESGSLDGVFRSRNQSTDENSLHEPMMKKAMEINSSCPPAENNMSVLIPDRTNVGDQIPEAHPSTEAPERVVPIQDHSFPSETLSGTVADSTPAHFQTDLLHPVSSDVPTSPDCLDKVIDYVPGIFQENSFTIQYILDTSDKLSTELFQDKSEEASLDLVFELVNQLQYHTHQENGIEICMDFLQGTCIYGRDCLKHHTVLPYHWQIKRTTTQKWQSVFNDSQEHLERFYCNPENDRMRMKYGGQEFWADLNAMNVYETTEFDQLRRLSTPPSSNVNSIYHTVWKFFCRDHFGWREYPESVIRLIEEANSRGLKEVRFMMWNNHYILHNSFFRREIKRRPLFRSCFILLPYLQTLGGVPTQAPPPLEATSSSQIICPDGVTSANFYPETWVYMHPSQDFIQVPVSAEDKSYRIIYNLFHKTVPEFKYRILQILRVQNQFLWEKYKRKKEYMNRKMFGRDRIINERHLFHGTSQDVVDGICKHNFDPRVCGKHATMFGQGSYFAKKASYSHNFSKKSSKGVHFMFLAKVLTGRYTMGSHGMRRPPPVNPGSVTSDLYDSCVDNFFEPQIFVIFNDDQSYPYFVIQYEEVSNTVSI

PARP2 = PARP2 (Homo sapiens, UniProt Q9UGN5); assay: PARP2 in vitro enzyme activity inhibition (chemiluminescence assay); format: biochemical
Protocol: (§1) Following the method in test example 1, the IC50 value of the inhibition of each compound on PARP7 activity were detected and obtained. Reference was made to the method in test example 1, except that the 6.25 nM of PARP7 solution in the ribosylation reaction step was replaced with a 5 nM of PARP1 solution or a 5 nM of PARP2. Similar to the 6.25 nM of PARP7 solution, the 5 nM of PARP1 solution and 5 nM of PARP2 solution were also formulated and obtained by using 1× Assay buffer.

PARP1 = PARP1 (Homo sapiens, UniProt P09874); assay: PARP1 in vitro enzyme activity inhibition (chemiluminescence assay); format: biochemical
Protocol: as §1

NCI-H1373 cells = assay: Inhibition on NCI-H1373 cell proliferation (Cell-Titer-Glo); format: cell-based; conditions: Homo sapiens, 144 h; NCI-H1373 cells, incubation for 6 days, Cell-Titer-Glo; read-out: NCI-H1373 cell proliferation inhibition IC50
PARP7 [2] = molecular target: T1, PARP7; assay: PARP7 in vitro enzyme activity inhibition (chemiluminescence assay, selectivity test); format: biochemical
Protocol: as §1

PARP7 [3] = molecular target: T1, PARP7; assay: PARP7 TR-FRET binding inhibition (displacement of probe RBN011147)
Protocol: The ability of the compound to substitute the probe RBN011147 (Wigle et al., 2020, Cell Chemical Biology 27, 877-887) was tested by a TR-FRET method, and IC50 was calculated to evaluate the binding ability of the compound to PARP7. […]

[4] = Histone H1 coated plate, Biotin-Labeled NAD+, 2 h at room temperature, chemiluminescence; read-out: PARP7 activity inhibition IC50
[5] = 5 nM of PARP2, method of test example 1; read-out: PARP2 activity inhibition IC50
[6] = 5 nM of PARP1 solution, method of test example 1; read-out: PARP1 activity inhibition IC50
[7] = 6.25 nM of PARP7 solution, method of test example 1; read-out: PARP7 activity inhibition IC50
[8] = TR-FRET, Biotin-labeled probe RBN011147; read-out: PARP7 binding inhibition IC50

Sequence of PARP1 (P09874 whole entry, species assumed): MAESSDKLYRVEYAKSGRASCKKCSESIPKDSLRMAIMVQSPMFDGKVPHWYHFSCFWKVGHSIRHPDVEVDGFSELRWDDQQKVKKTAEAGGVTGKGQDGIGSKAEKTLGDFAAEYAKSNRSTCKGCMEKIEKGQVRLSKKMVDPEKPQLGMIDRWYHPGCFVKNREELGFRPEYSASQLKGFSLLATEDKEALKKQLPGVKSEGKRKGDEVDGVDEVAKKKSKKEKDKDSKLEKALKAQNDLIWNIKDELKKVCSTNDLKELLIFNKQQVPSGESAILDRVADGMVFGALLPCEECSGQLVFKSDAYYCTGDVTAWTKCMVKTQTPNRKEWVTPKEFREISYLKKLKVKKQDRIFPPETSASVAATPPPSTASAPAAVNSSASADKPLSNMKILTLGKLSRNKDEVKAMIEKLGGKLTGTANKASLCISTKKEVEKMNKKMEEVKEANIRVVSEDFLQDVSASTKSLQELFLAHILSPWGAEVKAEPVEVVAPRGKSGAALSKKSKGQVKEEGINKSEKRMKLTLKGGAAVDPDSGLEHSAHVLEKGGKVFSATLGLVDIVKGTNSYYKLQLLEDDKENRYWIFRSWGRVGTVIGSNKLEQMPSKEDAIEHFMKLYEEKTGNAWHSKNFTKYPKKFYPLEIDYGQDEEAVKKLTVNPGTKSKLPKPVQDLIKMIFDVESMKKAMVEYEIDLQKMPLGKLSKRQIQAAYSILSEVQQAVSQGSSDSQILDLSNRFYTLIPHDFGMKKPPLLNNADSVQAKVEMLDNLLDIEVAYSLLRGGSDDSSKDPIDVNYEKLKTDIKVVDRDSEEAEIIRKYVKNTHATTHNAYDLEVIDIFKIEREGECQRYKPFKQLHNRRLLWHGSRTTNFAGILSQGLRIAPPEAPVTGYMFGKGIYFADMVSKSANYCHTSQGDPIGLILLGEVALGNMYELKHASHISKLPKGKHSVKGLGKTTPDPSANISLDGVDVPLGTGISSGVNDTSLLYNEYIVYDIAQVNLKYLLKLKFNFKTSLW
Sequence of PARP2 (Q9UGN5 whole entry, species assumed): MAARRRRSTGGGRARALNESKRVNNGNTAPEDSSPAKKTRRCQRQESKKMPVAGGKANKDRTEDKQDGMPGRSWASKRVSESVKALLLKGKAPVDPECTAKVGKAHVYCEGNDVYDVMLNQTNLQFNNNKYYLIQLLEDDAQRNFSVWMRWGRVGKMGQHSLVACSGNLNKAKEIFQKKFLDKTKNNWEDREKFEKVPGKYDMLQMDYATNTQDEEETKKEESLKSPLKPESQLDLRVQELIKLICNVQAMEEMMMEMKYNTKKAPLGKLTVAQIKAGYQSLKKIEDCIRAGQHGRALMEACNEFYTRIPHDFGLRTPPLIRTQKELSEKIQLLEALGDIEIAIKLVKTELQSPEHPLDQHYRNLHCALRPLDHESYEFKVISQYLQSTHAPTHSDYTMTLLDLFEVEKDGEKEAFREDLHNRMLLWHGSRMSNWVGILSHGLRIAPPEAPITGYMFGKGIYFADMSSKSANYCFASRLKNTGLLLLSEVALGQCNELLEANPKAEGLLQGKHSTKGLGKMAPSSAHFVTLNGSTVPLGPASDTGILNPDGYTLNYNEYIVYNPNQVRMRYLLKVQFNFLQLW

Structure (SMILES)	IC50 (PARP7 [1]; [4]) [nM]	IC50 (PARP2; [5]) [nM]	IC50 (PARP1; [6]) [nM]	IC50 (NCI-H1373 cells) [nM]	IC50 (PARP7 [2]; [7]) [nM]	IC50 (PARP7 [3]; [8]) [nM]	IC50 (PARP7 [1]; read-out: PARP7 activity inhibition IC50; Histone H1 coated plate, Biotin-Labeled NAD+, 2 h at room temperature, chemiluminescence) [nM]	IC50 (PARP2; read-out: PARP2 activity inhibition IC50; 5 nM of PARP2, method of test example 1) [nM]	IC50 (PARP1; read-out: PARP1 activity inhibition IC50; 5 nM of PARP1 solution, method of test example 1) [nM]	IC50 (PARP7 [2]; read-out: PARP7 activity inhibition IC50; 6.25 nM of PARP7 solution, method of test example 1) [nM]	IC50 (PARP7 [3]; read-out: PARP7 binding inhibition IC50; TR-FRET, Biotin-labeled probe RBN011147) [nM]
O=C(NCCCC(Nc1cn[nH]c(=O)c1C(F)(F)F)C(=O)N1CCCC1)c1ccc(-c2ncc(C(F)(F)F)cn2)cc1 (stereo not drawn) [Example 84]	< 3	10 to 30	> 100	300 to 1000	< 3	10 to 30					
C[C@@H]1COCCN1C(=O)[C@@H](CCCNC(=O)c1ccc(-c2ncc(C(F)(F)F)s2)cc1)Nc1cn[nH]c(=O)c1C(F)(F)F [Example 238]	< 3	10 to 30	30 to 100	300 to 1000	< 3	< 10					
CC(CCCNC(=O)c1ccc(-c2ncc(C(F)(F)F)s2)cc1)Nc1cn[nH]c(=O)c1C(F)(F)F (stereo not drawn) [Example 17]	< 3	< 3	10 to 30	< 300	< 3	< 10					
C[C@H]1CCN(C(=O)[C@@H](CCCNC(=O)c2ccc(-c3ncc(C(F)(F)F)s3)cc2)Nc2cn[nH]c(=O)c2C(F)(F)F)C1 [Example 232]	< 3	3 to 10	3 to 10	300 to 1000	< 3	10 to 30					
O=C(NCCC[C@@H](Nc1cn[nH]c(=O)c1C(F)(F)F)C(=O)N1CC[C@H](F)C1)c1ccc(-c2ncc(C(F)(F)F)s2)cc1 [Example 241]	< 3	3 to 10	10 to 30	1000 to 3000	< 3	10 to 30					
CC1(F)CN(C(=O)[C@@H](CCCNC(=O)c2ccc(-c3ncc(C(F)(F)F)s3)cc2)Nc2cn[nH]c(=O)c2C(F)(F)F)C1 [Example 242]	3 to 10	3 to 10	30 to 100	1000 to 3000	3 to 10	10 to 30					
COC1(C)CN(C(=O)[C@@H](CCCNC(=O)c2ccc(-c3ncc(C(F)(F)F)s3)cc2)Nc2cn[nH]c(=O)c2C(F)(F)F)C1 [Example 246]	< 3	3 to 10	10 to 30	1000 to 3000	< 3	< 10					
O=C(CCc1c[nH]c(=O)c(C(F)(F)F)c1N1CC2(CCC2)C1)Nc1ccc(-c2ncc(C(F)(F)F)s2)cn1 [Example 69]	< 3	> 100	> 100	> 3000	< 3	< 10					
O=C(NCCCC(Nc1cn[nH]c(=O)c1C(F)(F)F)C(=O)N1CCCC1)c1cnc(-c2ncc(C(F)(F)F)cn2)cn1 (stereo not drawn) [Example 89]	< 3	10 to 30	30 to 100	300 to 1000	< 3	< 10					
O=C(NCCCC(Nc1cn[nH]c(=O)c1C(F)(F)F)C(=O)NC1CCCOC1)c1ccc(-c2ncc(C(F)(F)F)s2)cc1 (stereo not drawn) [Example 235]	< 3	3 to 10	3 to 10	300 to 1000	< 3	< 10					
CC(C)(C)NC(=O)[C@@H](CCCNC(=O)c1ccc(-c2ncc(C(F)(F)F)s2)cc1)Nc1cn[nH]c(=O)c1C(F)(F)F [Example 221]	< 3	3 to 10	> 100	< 300	< 3	< 10					
N#C[C@@H]1CCN(C(=O)[C@@H](CCCNC(=O)c2ccc(-c3ncc(C(F)(F)F)s3)cc2)Nc2cn[nH]c(=O)c2C(F)(F)F)C1 [Example 239]	< 3	> 100	10 to 30	300 to 1000	< 3	10 to 30					
CC(CCCNC(=O)c1cnc(-c2ncc(C(F)(F)F)cn2)cn1)Nc1cn[nH]c(=O)c1C(F)(F)F (stereo not drawn) [Example 4]	< 3	3 to 10	30 to 100	300 to 1000	< 3	< 10					
O=C(CCc1c[nH]c(=O)c(C(F)(F)F)c1N1CC2(CCC2)C1)Nc1ccc(-c2ncc(C(F)(F)F)cn2)cn1 [Example 70]				> 3000			3 to 10	> 100	> 100	3 to 10	< 10
Cc1c(CCC(=O)Nc2ccc(-c3ncc(C(F)(F)F)cn3)cc2)c[nH]c(=O)c1C(F)(F)F [Example 10]	< 3	3 to 10	3 to 10	1000 to 3000	< 3	< 10					
CO[C@H]1CCN(C(=O)[C@@H](CCCNC(=O)c2ccc(-c3ncc(C(F)(F)F)s3)cc2)Nc2cn[nH]c(=O)c2C(F)(F)F)C1 [Example 237]	< 3	3 to 10	10 to 30	300 to 1000	< 3	< 10					
O=C(NCCC[C@@H](Nc1cn[nH]c(=O)c1C(F)(F)F)C(=O)N1CC(Cl)C1)c1ccc(-c2ncc(C(F)(F)F)s2)cc1 [Example 224]	< 3	10 to 30	3 to 10	< 300	< 3	< 10					
CCNC(=O)C(CCCNC(=O)c1ccc(-c2ncc(C(F)(F)F)s2)cc1)Nc1cn[nH]c(=O)c1C(F)(F)F (stereo not drawn) [Example 231]	< 3	3 to 10	10 to 30	< 300	< 3	< 10					
O=C(NCCCC(Nc1cn[nH]c(=O)c1C(F)(F)F)C(=O)N1CCOCC1)c1cnc(-c2ncc(C(F)(F)F)cn2)cn1 (stereo not drawn) [Example 90]	< 3	30 to 100	30 to 100	> 3000	< 3	30 to 100					
N#CC1CCN(C(=O)[C@@H](CCCNC(=O)c2ccc(-c3ncc(C(F)(F)F)s3)cc2)Nc2cn[nH]c(=O)c2C(F)(F)F)CC1 [Example 243]	< 3	3 to 10	3 to 10	> 3000	< 3	< 10					
